The text below walks through data of patent publication US5242945A, “Tetronic and thiotetronic acid derivatives as phospholipase A2 inhibitors” (American Home Products Corporation, priority 1991, dated 1993).

Read-outs that look alike come from different tables or passages of the source.

Assay [1] deals with cyclooxygenase (PGE2 or TxB2 synthesis). Put plainly: inhibition of synthesis of cyclooxygenase products PGE2 and TxB2 by rat polymorphonuclear leukocytes. As to conditions: Leukocyte, rat PMN; for inhibition at 10 µM: + with * denotes potentiation. It counts as cell-based, rat (female Wistar). How it is done: (§1) Rat polymorphonuclear leukocytes (PMNs) are obtained from female Wistar rats (150-200 g) which receive an injection of 6% glycogen (10 ml i.p.). Rats are sacrificed 18-24 hours post injection by CO2 asphyxiation and the elicited cells are harvested by peritoneal lavage using physiological saline (0.9% NaCl). The exudate is centrifuged at 400 xg for 10 minutes. The supernatant fluid is discarded and the cell pellet is resuspended to a concentration of 2.0×10^7 cells/mL in HBSS containing Ca^++ and Mg^++ and 10 μM L-cysteine.
(§2) To 1 mL aliquots of cell suspension, test drugs or vehicle are added, then preincubated at 37° C. for 10 minutes. A23187 (1 μM), [^3 H]-AA (3.0 μCi/mL) and unlabeled AA (1 μM) are then added and the samples are further incubated for 10 minutes. The reaction is terminated by centrifugation and pelleting cells. Supernatants are then analyzed by HPLC analysis on a 15 cm×4.6 mm ID supelcosil LC-18 (Supelco)(3M) column, using a two solvent system at a flow rate of 1.4 mL total flow as follows:
In this assay, the procedure of Example 58 is carried out as described. However, in order to determine cyclooxygenase activity, the samples are co-chromatographed with authentic reference [^3 H]-TxB2 or [^3 H]-PGE2.
The results are calculated as in Example 58 and presented below: […]

The subject of assay [2] is lipoxygenase (LTB4 or 5HETE synthesis). Put plainly: inhibition of LTB4 and 5-HETE synthesis by rat glycogen-elicited polymorphonuclear leukocytes. The assay is classed as cell-based, rat (female Wistar). As to conditions: Leukocyte, rat PMN; for inhibition at 10 µM: + with * denotes potentiation.
Description: This is especially true with respect to 5,12-diHETE, which is also denoted as LTB4 [see Ford-Hitchinson, J. Roy. Soc. Med., 74, 831 (1981)]. Compounds which inhibit the PLA2 -mediated release of arachidonic acid thereby effectively prevent the oxidation of arachidonic acid to the various leukotriene products via the lipoxygenase cascade. Accordingly, the specificity of action of PLA2 inhibitors can be determined by the activity of test compounds in this assay, which measures the ability of compounds to inhibit the synthesis of LTB4 and 5-HETE by rat glycogen-elicited polymorphonuclear leukocytes (PMN) in the presence of exogenous substrate.
as §1, §2
Injections: 140 μL of each supernatant is injected directly onto column and ^3 H arachidonic acid metabolites are monitored using an on-line radioactivity detector (Ramona, IN/US, Fairfield, N.J.).
Co-chromatography with standard [^3 H] leukotriene B4 (LTB4) in medium of stimulated PMN exposed to drug is compared to that found in medium of stimulated cells exposed to no drug, generating percent inhibition.
Results are expressed as percent inhibition at a given compound dose or as an IC50 value.

The subject of assay [3] is purified PLA2, from the diamond back cotton mouth snake (A. piscivorus piscivorus). Description: in vivo PLA2 murine paw edema assay. The arrangement: species or system A. piscivorus piscivorus PLA2 in CD-1 mice.
A further assay relates to carrageenan paw edema. Description: rat carrageenan paw edema assay. It counts as in vivo, rat (Sprague-Dawley). As for the experimental part: The compounds of the invention are further tested in the rat carrageenan paw edema assay to determine their ability to inhibit the acute inflammatory response.
140-180 g Male Sprague-Dawley rats, in groups of 6 animals are injected subcutaneously in the right paw with 0.1 mL of 1% carrageenan at zero time. Mercury plethysmographic readings (mL) of the paw are made at zero time and 3 hours later. Test compounds are suspended or dissolved in 0.5% methylcellulose and given perorally 1 hour prior to carrageenan administration.
The increase in paw volume (edema in mL) produced by the carrageenan is measured. Paw edema is calculated (3 hour volume minus zero time volume), and percent inhibition of edema is determined. Unpaired Student's t-test is used to determine statistical significance.
On the technique in general: In the carrageenan paw model, swelling and tenderness develop within hours.

For assay [4], the system named is purified PLA2, from the diamond back cotton mouth snake (A. piscivorus piscivorus). Put plainly: in vivo PLA2 murine paw edema assay. Details: species or system A. piscivorus piscivorus PLA2 in CD-1 mice. As for the experimental part:
The ability of the compounds of the invention to inhibit paw edema induced by the exogenous administration of PLA2 is measured in the in vivo PLA2 murine paw edema assay.
Non-fasted, male CD-1 mice (8 weeks old; 31-36 grams) are placed in plastic boxes in groups of six. The right hind paw volume is measured using mercury plethysmography (zero time). Compounds are dosed orally (0.5 mL of 0.5% Tween-80) 1 or 3 hours prior to PLA2 injection or intravenously (0.2 mL in 0.3% dimethylsulfoxide/saline) 3 minutes prior to PLA2 injection. A solution of purified PLA2, from the diamond back cotton mouth snake (A. piscivorus piscivorus) is prepared in saline at a concentration of 6 μg/mL. Fifty (50) μL (0.3 μg) of this PLA2 solution is injected subcutaneously into the right hind paw with a plastic 1 mL plastic syringe (27 gauge, 1" needle). Paw volume of the injected paw is measured again at 10 minutes, 30 minutes and 60 minutes after PLA2 injection. Animals are euthanized with CO2 at the completion of the study.
The paw edema is calculated by subtracting the zero time volume from the volume recorded at each time period. Mean paw edema for each treatment group is then calculated and expressed as (μL±S.E.). Drug effects are expressed as a percent change from control (vehicle) values. Statistical significance is determined by a one-way analysis of variance with LSD comparison to control (p<0.05). ED50 's are determined using […].
The source holds these as a separate data set.

For the molecule `CCCC/C=C\CCCCCCCC(=O)C1=C(O)COC1=O` [Example 25, 4-Hydroxy-3-((Z)-1-oxo-9-tetradecenyl)-2(5H)-furanone], the inhibition at 10 µM in assay [1] (read-out: % Inhibition PGE2) was 68%; in assay [1] (read-out: % Inhibition TxB2), 8%; in assay [2] (read-out: % Inhibition 5-HETE), 81%; in assay [2] (read-out: % Inhibition LTB4) it was 8%. In addition, the “% Change in Edema 10 min” value in assay [3] (1 mg/kg i.p.) was -50%; in assay [3] (10 mg/kg i.p.) it was -38%; in assay [3] (200 mg/kg p.o.) it was -40%. Besides, the “% Change in Edema 30 min” value is on record as -65% in assay [3] (1 mg/kg i.p.), -44% in assay [3] (10 mg/kg i.p.) and -33% in assay [3] (200 mg/kg p.o.). In addition, the “% Change in Edema 60 min” value is -1% in assay [3] (1 mg/kg i.p.), -18% in assay [3] (10 mg/kg i.p.) and -43% in assay [3] (200 mg/kg p.o.).

Take `CCCCCCCC/C=C\CCCCCCCC(=O)C1=C(O)COC1=O` [Example 9, (Z)-4-Hydroxy-3-(1-oxo-9-octadecenyl)-2(5H)-furanone]: the “% Inhibition” value in the assay with carrageenan paw edema (100 mg/kg peroral (dose column)) turned out to be 41%. Moreover, the inhibition at 10 µM in assay [1] (read-out: % Inhibition TxB2) was 31%; in assay [2] (read-out: % Inhibition LTB4), 1%. For the same molecule, the “% Change in Edema 10 min” value was -48% in assay [4] (10 mg/kg i.v.) and -1% in assay [4] (100 mg/kg p.o.). For the same molecule, the figures for the “% Change in Edema 30 min” value in assay [4] (10 mg/kg i.v.) and in assay [4] (100 mg/kg p.o.) were -42% and “+1.5%”, respectively. Further, the “% Change in Edema 60 min” value in assay [4] (10 mg/kg i.v.) is -48%; in assay [4] (100 mg/kg p.o.), “+7.1%”.

Consider `CCCCCCCCCC(=O)C1=C(O)COC1=O` [Example 1, 4-Hydroxy-3-(1-oxodecyl)-2(5H)-furanone], for which, in the assay with carrageenan paw edema (50 mg/kg peroral), the “% Inhibition” value is reported as 40%. In addition, at 50 µM the inhibition in assay [1] (at 50 μM) was 71%. Further, testing at 50 µM in assay [2] (at 50 μM) gave an inhibition of 60%. Moreover, in assay [4] (10 mg/kg i.v.), the “% Change in Edema 10 min” value was -51%, the “% Change in Edema 30 min” value is listed as -43% and the “% Change in Edema 60 min” value is -23%. Also, in assay [4] (100 mg/kg p.o.), the “% Change in Edema 10 min” value is on record as -36%, the “% Change in Edema 30 min” value is -29% and the “% Change in Edema 60 min” value is -29%.

Broadly, the inhibition is how much of the control response was suppressed. By % Inhibition is commonly meant the share of the control response that was lost under treatment.
